{"source": "patent US12539292B2", "about": "“BRM targeting compounds and associated methods of use” (Arvinas Operations, Inc., priority 2018, dated 2026)", "target": "T1, BRM (Homo sapiens, UniProt P51531)", "T1 construct": "In-Cell Western Screen of BRM Degradation in SW1573 Cells; endogenous in cells; host or cells: SW1573", "T1 sequence (P51531 whole entry)": "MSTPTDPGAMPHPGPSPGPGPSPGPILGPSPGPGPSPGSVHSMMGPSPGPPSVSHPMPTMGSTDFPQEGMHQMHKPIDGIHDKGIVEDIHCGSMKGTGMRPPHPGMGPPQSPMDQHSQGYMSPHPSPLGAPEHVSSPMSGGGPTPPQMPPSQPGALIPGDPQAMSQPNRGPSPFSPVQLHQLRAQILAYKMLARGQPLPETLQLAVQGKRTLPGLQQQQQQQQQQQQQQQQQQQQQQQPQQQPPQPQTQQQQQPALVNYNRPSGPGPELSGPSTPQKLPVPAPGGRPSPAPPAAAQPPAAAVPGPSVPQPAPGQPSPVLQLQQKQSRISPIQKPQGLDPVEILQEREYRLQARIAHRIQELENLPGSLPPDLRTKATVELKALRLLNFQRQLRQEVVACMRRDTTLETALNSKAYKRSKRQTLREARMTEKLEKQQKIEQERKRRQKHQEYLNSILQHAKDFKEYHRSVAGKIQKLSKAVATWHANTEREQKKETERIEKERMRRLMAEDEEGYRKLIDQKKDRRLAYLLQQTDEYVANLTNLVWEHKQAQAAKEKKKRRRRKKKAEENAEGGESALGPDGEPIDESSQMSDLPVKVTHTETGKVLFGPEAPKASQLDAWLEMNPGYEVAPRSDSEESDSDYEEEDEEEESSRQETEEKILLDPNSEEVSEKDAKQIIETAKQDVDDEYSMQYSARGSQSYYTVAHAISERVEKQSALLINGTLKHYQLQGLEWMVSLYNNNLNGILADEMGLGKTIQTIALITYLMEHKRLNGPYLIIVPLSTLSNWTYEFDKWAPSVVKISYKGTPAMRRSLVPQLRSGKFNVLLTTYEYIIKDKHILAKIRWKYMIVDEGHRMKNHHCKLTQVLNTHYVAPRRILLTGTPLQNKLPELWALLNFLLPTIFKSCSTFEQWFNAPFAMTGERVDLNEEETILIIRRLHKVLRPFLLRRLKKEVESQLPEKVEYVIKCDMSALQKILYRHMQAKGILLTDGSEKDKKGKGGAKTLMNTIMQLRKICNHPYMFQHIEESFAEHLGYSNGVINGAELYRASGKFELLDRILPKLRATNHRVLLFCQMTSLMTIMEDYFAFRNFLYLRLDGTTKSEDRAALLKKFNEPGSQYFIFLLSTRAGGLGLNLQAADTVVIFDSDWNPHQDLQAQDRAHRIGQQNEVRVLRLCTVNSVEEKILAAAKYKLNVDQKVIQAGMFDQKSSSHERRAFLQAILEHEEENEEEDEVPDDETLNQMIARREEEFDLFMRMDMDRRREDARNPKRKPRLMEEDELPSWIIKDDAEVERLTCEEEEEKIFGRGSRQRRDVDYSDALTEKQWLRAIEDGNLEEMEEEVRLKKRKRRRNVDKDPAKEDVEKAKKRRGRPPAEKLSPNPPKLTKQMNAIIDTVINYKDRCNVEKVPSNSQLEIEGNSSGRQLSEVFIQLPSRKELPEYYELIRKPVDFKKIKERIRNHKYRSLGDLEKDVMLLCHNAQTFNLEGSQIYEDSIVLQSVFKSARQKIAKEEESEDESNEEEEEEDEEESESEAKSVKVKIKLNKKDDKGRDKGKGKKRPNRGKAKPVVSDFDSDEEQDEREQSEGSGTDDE", "assay": "In-cell Western screen of BRM degradation in SW1573 cells (Dmax and DC50)", "assay_type": "cell-based", "in_short": "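Near-infrared imaging on a LI-COR Odyssey (800 and 680 nm channels) quantifies BRM remaining in fixed SW1573 cells. Cells are dosed for 18-20 h at 0.1% final DMSO, and degradation is expressed as Dmax and DC50.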", "key": {"[1]": {"settings": "BRM degradation, SW1573 cells, Table 2D, read-out: *DC50"}, "[2]": {"settings": "BRM degradation, SW1573 cells, read-out: DC50"}, "[3]": {"settings": "BRM degradation, SW1573 cells, tested at the top concentration of between 0.3 and 10 μM, read-out: Dmax (%) (% degraded)"}, "[4]": {"settings": "BRM degradation, SW1573 cells, when tested at the top concentration of between 0.3 and 10 μM, read-out: Dmax (%) (% degraded)"}}, "note": "Like-named read-outs stand apart in the source and are kept apart here.", "data": [{"smiles": "Cc1ncsc1-c1ccc([C@H](C)NC(=O)[C@@H]2C[C@@H](O)CN2C(=O)[C@H](c2cc(OCC[C@@H]3CCN(C[C@H]4C[C@H](Oc5cc(N6C7CCC6CN(c6cc(-c8ccccc8O)nnc6N)C7)ccn5)C4)[C@H](C)[C@@H]3C)no2)C(C)C)cc1", "note": "(single isomer, unassigned) [compound 583]", "values": [{"measurement": "DC50", "setting": "[1]", "result": "> 30", "unit": "nM"}]}, {"smiles": "CC(=O)NCc1ncsc1-c1ccc([C@H](C)NC(=O)[C@@H]2C[C@@H](O)CN2C(=O)C(c2cc(OCCN3CCN(CCOc4cc(N5C6CCC5CN(c5cc(-c7ccccc7O)nnc5N)C6)ccn4)CC3)no2)C(C)C)cc1", "note": "(stereo partly drawn) [compound 174, (2S,4R)-N-((S)-1-(4-(4-(acetamidomethyl)thiazol-5-yl)phenyl)ethyl)-1-(2-(3-(2-(4-(2-((4-(3-(3-amino-6-(2-hydroxyphenyl)pyridazin-4-yl)-3,8-diazabicyclo[3.2.1]octan-8-yl)pyridin-2-yl)oxy)ethyl)piperazin-1-yl)ethoxy)isoxazol-5-yl)-3-methylbutanoyl)-4-hydroxypyrrolidine-2-carboxamide]", "values": [{"measurement": "DC50", "setting": "[2]", "result": "10 to 30", "unit": "nM"}, {"measurement": "Dmax", "setting": "[3]", "result": "> 75", "unit": "%"}]}, {"smiles": "Cc1ncsc1-c1ccc([C@H](C)NC(=O)[C@@H]2C[C@@H](O)CN2C(=O)[C@@H](c2cc(OCCC3CCN([C@H]4C[C@H](CN5CCOC6(CCN(c7cc(-c8ccccc8O)nnc7N)CC6)C5)C4)CC3)no2)C(C)C)cc1", "note": "[compound 445, (2S,4R)-1-((R)-2-(3-(2-(1-((1r,3R)-3-((9-(3-amino-6-(2-hydroxyphenyl)pyridazin-4-yl)-1-oxa-4,9-diazaspiro[5.5]undecan-4-yl)methyl)cyclobutyl)piperidin-4-yl)ethoxy)isoxazol-5-yl)-3-methylbutanoyl)-4-hydroxy-N-((S)-1-(4-(4-methylthiazol-5-yl)phenyl)ethyl)pyrrolidine-2-carboxamide]", "values": [{"measurement": "Dmax", "setting": "SW1573, % degraded, when tested at the top concentration of between 0.3 and 10 μM, read-out: BRM Dmax (%)", "result": "> 75", "unit": "%"}, {"measurement": "DC50", "setting": "degradation of BRM, read-out: BRM DC50", "result": "< 2.5", "unit": "nM"}]}, {"smiles": "Cc1ncsc1-c1ccc([C@H](C)NC(=O)[C@@H]2C[C@@H](O)CN2C(=O)[C@H](c2cc(N3CCN(CCN4CCC(O[C@H]5C[C@H](Oc6cc(N7C8CCC7CN(c7cc(-c9ccccc9O)nnc7N)C8)ccn6)C5)CC4)CC3)no2)C(C)C)cc1", "note": "[compound 195, (2S,4R)-1-((2S)-2-(3-(4-(2-(4-((1r,3r)-3-((4-(3-(3-amino-6-(2-hydroxyphenyl)pyridazin-4-yl)-3,8-diazabicyclo[3.2.1]octan-8-yl)pyridin-2-yl)oxy)cyclobutoxy)piperidin-1-yl)ethyl)piperazin-1-yl)isoxazol-5-yl)-3-methylbutanoyl)-4-hydroxy-N-((S)-1-(4-(4-methylthiazol-5-yl)phenyl)ethyl)pyrrolidine-2-carboxamide]", "values": [{"measurement": "DC50", "setting": "[2]", "result": "> 30", "unit": "nM"}, {"measurement": "Dmax", "setting": "[3]", "result": "> 75", "unit": "%"}]}, {"smiles": "Cc1ncsc1-c1ccc(CNC(=O)[C@@H]2C[C@@H](O)CN2C(=O)[C@@H](NC(=O)COCCOCCOCCOCCCc2cc(N3C4CCC3CN(c3cc(-c5ccccc5O)nnc3N)C4)ccn2)C(C)(C)C)cc1", "note": "[compound 53, (2S,4R)-1-((S)-18-(4-(3-(3-amino-6-(2-hydroxyphenyl)pyridazin-4-yl)-3,8-diaza-bicyclo[3.2.1]octan-8-yl)pyridin-2-yl)-2-tert-butyl-4-oxo-6,9,12,15-tetraoxa-3-azaoctadecan-1-oyl)-4-hydroxy-N-(4-(4-methylthiazol-5-yl)benzyl)pyrrolidine-2-carboxamide]", "values": [{"measurement": "DC50", "setting": "[2]", "result": "2.5 to 10", "unit": "nM"}, {"measurement": "Dmax", "setting": "[4]", "result": "> 75", "unit": "%"}]}, {"smiles": "Cc1ncsc1-c1ccc([C@H](C)NC(=O)[C@@H]2C[C@@H](O)CN2C(=O)[C@H](c2cc(N3CCC(CN4CCC(O[C@H]5C[C@H](Oc6cc(/C=C/c7cc(-c8ccccc8O)nnc7N)ccn6)C5)CC4)CC3)no2)C(C)C)cc1", "note": "[compound 625, (2S,4R)-1-((S)-2-(3-(4-((4-((1r,3r)-3-((4-((E)-2-(3-amino-6-(2-hydroxyphenyl)pyridazin-4-yl)vinyl)pyridin-2-yl)oxy)cyclobutoxy)piperidin-1-yl)methyl)piperidin-1-yl)isoxazol-5-yl)-3-methylbutanoyl)-4-hydroxy-N-((S)-1-(4-(4-methylthiazol-5-yl)phenyl)ethyl)pyrrolidine-2-carboxamide]", "values": [{"measurement": "DC50", "setting": "[1]", "result": "> 30", "unit": "nM"}]}, {"smiles": "Cc1ncsc1-c1ccc([C@H](C)NC(=O)[C@@H]2C[C@@H](O)CN2C(=O)[C@H](c2cc(OCCC3CCN(C[C@H]4C[C@H](C#CC(C)n5cc(-c6cc(-c7ccccc7O)nnc6N)cn5)C4)CC3)no2)C(C)C)cc1", "note": "(stereo partly drawn) [compound 633, (2S,4R)-1-((2R)-2-(3-(2-(1-(((1r,3R)-3-(3-(4-(3-amino-6-(2-hydroxyphenyl)pyridazin-4-yl)-1H-pyrazol-1-yl)but-1-yn-1-yl)cyclobutyl)methyl)piperidin-4-yl)ethoxy)isoxazol-5-yl)-3-methylbutanoyl)-4-hydroxy-N-((S)-1-(4-(4-methylthiazol-5-yl)phenyl)ethyl)pyrrolidine-2-carboxamide]", "values": [{"measurement": "DC50", "setting": "[2]", "result": "< 2.5", "unit": "nM"}, {"measurement": "Dmax", "setting": "BRM degradation, SW1573 cells, read-out: Dmax (% degraded)", "result": "> 75", "unit": "%"}]}, {"smiles": "CC(C)[C@H](C(=O)N1C[C@H](O)C[C@H]1C(=O)N[C@@H](C)c1ccc(-n2ccnc2CO)cc1)c1cc(OCC#Cc2ccc(O[C@H]3C[C@H](Oc4cc(N5C6CCC5CN(c5cc(-c7ccccc7O)nnc5N)C6)ccn4)C3)cn2)no1", "note": "[compound 284, (2S,4R)-1-((2S)-2-(3-((3-(5-((1r,3S)-3-((4-(3-(3-amino-6-(2-hydroxyphenyl)pyridazin-4-yl)-3,8-diazabicyclo[3.2.1]octan-8-yl)pyridin-2-yl)oxy)cyclobutoxy)pyridin-2-yl)prop-2-yn-1-yl)oxy)isoxazol-5-yl)-3-methylbutanoyl)-4-hydroxy-N-((S)-1-(4-(2-(hydroxymethyl)-1H-imidazol-1-yl)phenyl)ethyl)pyrrolidine-2-carboxamide]", "values": [{"measurement": "DC50", "setting": "[2]", "result": "10 to 30", "unit": "nM"}, {"measurement": "Dmax", "setting": "[3]", "result": "> 75", "unit": "%"}]}, {"smiles": "Cc1cc([C@@H](C(=O)N2C[C@H](O)C[C@H]2C(=O)N[C@@H](C)c2ccc(-c3scnc3C)cc2)[C@H](C)COCCn2cc(-c3cc(-c4ccccc4O)nnc3N)cn2)on1", "note": "[compound 534, (2S,4R)-1-((2S,3S)-4-(2-(4-(3-amino-6-(2-hydroxyphenyl)pyridazin-4-yl)-1 H-pyrazol-1-yl)ethoxy)-3-methyl-2-(3-methylisoxazol-5-yl)butanoyl)-4-hydroxy-N-((S)-1-(4-(4-methylthiazol-5-yl)phenyl)ethyl)pyrrolidine-2-carboxamide]", "values": [{"measurement": "DC50", "setting": "BRM degradation, read-out: BRM DC50", "result": "> 30", "unit": "nM"}]}, {"smiles": "Cc1ncsc1-c1ccc([C@H](C)NC(=O)[C@@H]2C[C@@H](O)CN2C(=O)[C@@H](c2cc(OCCC3CCN(C[C@H]4C[C@H](N5CCC(CN6CCOC7(CCN(c8cc(-c9ccccc9O)nnc8N)CC7)C6)CC5)C4)CC3)no2)C(C)C)cc1", "note": "[compound 598, (2S,4R)-1-((R)-2-(3-(2-(1-(((1r,3R)-3-(4-((9-(3-amino-6-(2-hydroxyphenyl)pyridazin-4-yl)-1-oxa-4,9-diazaspiro[5.5]undecan-4-yl)methyl)piperidin-1-yl)cyclobutyl)methyl)piperidin-4-yl)ethoxy)isoxazol-5-yl)-3-methylbutanoyl)-4-hydroxy-N-((S)-1-(4-(4-methylthiazol-5-yl)phenyl)ethyl)pyrrolidine-2-carboxamide]", "values": [{"measurement": "Dmax", "setting": "BRM degradation, SW1573 cells, Table 2D, read-out: **Dmax (%) (% degraded)", "result": "> 75", "unit": "%"}, {"measurement": "DC50", "setting": "[1]", "result": "< 2.5", "unit": "nM"}]}, {"smiles": "Cc1ncsc1-c1ccc(CNC(=O)[C@@H]2C[C@@H](O)CN2C(=O)[C@@H](NC(=O)COCCOCCOCCOCCOCCOc2cc(N3[C@@H]4CC[C@H]3CN(c3cc(-c5ccccc5O)nnc3N)C4)ccn2)C(C)(C)C)cc1", "note": "[compound 9, (2S,4R)-1-((S)-20-((4-((1R,5S)-3-(3-amino-6-(2-hydroxyphenyl)pyridazin-4-yl)-3,8-diazabicyclo[3.2.1]octan-8-yl)pyridin-2-yl)oxy)-2-(tert-butyl)-4-oxo-6,9,12,15,18-pentaoxa-3-azaicosanoyl)-4-hydroxy-N-(4-(4-methylthiazol-5-yl)benzyl)pyrrolidine-2-carboxamide]", "values": [{"measurement": "DC50", "setting": "[2]", "result": "2.5 to 10", "unit": "nM"}, {"measurement": "Dmax", "setting": "[4]", "result": "> 75", "unit": "%"}]}]}
